Results taken from US20200239530A1, “COMPOUNDS AND METHODS OF MODULATING PROTEIN DEGRADATION” (Vividion Therapeutics, Inc., priority 2017, published 2020).

Target: T1, POGZ Pogo transposable element with ZNF domain (Homo sapiens, UniProt Q7Z3K3)
T1 construct: Cells were resuspended in cold PBS on ice and sonicated with a probe sonicator to achieve lysis; endogenous in cells
T1 sequence (Q7Z3K3 1-1410): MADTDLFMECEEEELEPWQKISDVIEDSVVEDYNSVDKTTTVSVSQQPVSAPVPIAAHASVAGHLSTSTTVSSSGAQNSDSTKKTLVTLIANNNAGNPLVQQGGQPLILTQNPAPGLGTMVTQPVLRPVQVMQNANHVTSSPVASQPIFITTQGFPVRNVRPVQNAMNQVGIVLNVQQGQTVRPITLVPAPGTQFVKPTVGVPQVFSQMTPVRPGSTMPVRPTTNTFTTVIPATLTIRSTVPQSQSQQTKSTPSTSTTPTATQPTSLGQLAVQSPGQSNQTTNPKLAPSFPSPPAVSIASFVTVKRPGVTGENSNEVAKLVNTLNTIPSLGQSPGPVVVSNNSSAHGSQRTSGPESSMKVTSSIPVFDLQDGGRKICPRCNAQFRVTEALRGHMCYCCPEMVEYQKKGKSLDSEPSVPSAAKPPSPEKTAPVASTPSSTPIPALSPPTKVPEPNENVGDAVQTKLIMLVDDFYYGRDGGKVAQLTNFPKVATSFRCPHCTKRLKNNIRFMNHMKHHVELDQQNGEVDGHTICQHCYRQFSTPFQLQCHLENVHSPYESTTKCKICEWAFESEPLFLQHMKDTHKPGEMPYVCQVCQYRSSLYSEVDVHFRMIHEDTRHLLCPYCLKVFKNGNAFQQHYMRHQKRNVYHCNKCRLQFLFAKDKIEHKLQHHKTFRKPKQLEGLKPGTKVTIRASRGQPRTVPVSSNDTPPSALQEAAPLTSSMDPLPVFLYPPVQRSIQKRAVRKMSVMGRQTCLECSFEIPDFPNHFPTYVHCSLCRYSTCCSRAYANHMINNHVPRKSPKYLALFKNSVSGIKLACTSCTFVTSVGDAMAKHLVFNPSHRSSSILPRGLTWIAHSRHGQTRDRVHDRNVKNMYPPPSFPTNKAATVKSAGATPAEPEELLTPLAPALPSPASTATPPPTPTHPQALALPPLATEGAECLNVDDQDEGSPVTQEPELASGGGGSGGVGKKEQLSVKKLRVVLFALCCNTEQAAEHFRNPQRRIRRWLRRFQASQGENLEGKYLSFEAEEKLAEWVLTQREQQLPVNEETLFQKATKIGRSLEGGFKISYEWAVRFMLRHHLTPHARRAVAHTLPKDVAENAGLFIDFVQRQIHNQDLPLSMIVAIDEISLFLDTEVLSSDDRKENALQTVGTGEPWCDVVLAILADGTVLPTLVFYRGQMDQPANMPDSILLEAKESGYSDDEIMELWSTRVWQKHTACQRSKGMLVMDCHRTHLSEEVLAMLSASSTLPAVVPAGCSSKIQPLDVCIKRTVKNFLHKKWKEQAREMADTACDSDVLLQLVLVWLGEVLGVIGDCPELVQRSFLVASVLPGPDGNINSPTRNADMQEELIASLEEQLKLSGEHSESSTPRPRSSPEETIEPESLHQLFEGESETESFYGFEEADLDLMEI
Assay: Cysteine liganding, probe competition
Assay type: binding
How it was run: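 Read-out is loss of desthiobiotin iodoacetamide labelling at cysteines, measured on streptavidin-enriched tryptic peptides. Compound preincubation ran 1 hr at 25° C in PBS lysate holding 5 mg/ml proteome before the probe was added.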

O=C(CCl)Nc1cc(C(F)(F)F)cc(C(F)(F)F)c1 [KBO3]
100 Max (uniprot Q7Z3K3): 2.21
100 ave (uniprot Q7Z3K3): −8.9575
500 Max (uniprot Q7Z3K3): 15.64
500 ave (uniprot Q7Z3K3): 13.995

COc1ccc2c(c1)CCCN2C(=O)CCl [KB02]
Liganded (POGZ Res# 547, uniprot Q7Z3K3): YES
